Active and inactive are the calls of the source. The calls are words filed in the database; no cut-off is given here.
Experiments:
[1] = system: HT-29; experiment: Growth inhibition of human HT-29 cells at 10 uM after 48 hrs; assay type: functional
[2] = system: U-251; experiment: Growth inhibition of human U251 cells at 10 uM after 48 hrs; assay type: functional
[3] = system: MCF7; experiment: Growth inhibition of human MCF7 cells at 10 uM after 48 hrs; assay type: functional
[4] = system: SW-620; experiment: Growth inhibition of human SW620 cells at 10 uM after 48 hrs; assay type: functional
[5] = system: HCC 2998; experiment: Growth inhibition of human HCC2998 cells at 10 uM after 48 hrs; assay type: functional
[6] = system: MDA-MB-231; experiment: Growth inhibition of human MDA-MB-231 cells at 10 uM after 48 hrs; assay type: functional
[7] = system: A498; experiment: Growth inhibition of human A498 cells at 10 uM after 48 hrs; assay type: functional
[8] = system: BT-549; experiment: Growth inhibition of human BT549 cells at 10 uM after 48 hrs; assay type: functional
[9] = system: A549; experiment: Growth inhibition of human A549 cells at 10 uM after 48 hrs; assay type: functional
[10] = system: ACHN; experiment: Growth inhibition of human ACHN cells at 10 uM after 48 hrs; assay type: functional
[11] = system: COLO 205; experiment: Growth inhibition of human COLO205 cells at 10 uM after 48 hrs; assay type: functional
[12] = system: HOP-92; experiment: Growth inhibition of human HOP92 cells at 10 uM after 48 hrs; assay type: functional
[13] = system: RXF 393; experiment: Growth inhibition of human RXF393 cells at 10 uM after 48 hrs; assay type: functional
[14] = system: NCI/ADR-RES; experiment: Growth inhibition of human NCI-ADR-RES cells at 10 uM after 48 hrs; assay type: functional
[15] = system: SN12C; experiment: Growth inhibition of human SN12C cells at 10 uM after 48 hrs; assay type: functional
[16] = system: Malme-3M; experiment: Growth inhibition of human MALME-3M cells at 10 uM after 48 hrs; assay type: functional
[17] = system: UACC-257; experiment: Growth inhibition of human UACC257 cells at 10 uM after 48 hrs; assay type: functional
[18] = system: HCT-116; experiment: Growth inhibition of human HCT116 cells at 10 uM after 48 hrs; assay type: functional
[19] = system: HCT-15; experiment: Growth inhibition of human HCT15 cells at 10 uM after 48 hrs; assay type: functional
[20] = system: UO-31; experiment: Growth inhibition of human UO31 cells at 10 uM after 48 hrs; assay type: functional
[21] = system: HL-60(TB); experiment: Growth inhibition of human HL-60(TB) cells at 10 uM after 48 hrs; assay type: functional
[22] = system: Candida albicans; experiment: Antimicrobial activity against Candida albicans assessed as inhibition zone at 200 ug/disk after 24 hrs by disc-diffusion method; assay type: functional; conditions: read-out: IZ
[23] = system: NCI-H23; experiment: Growth inhibition of human NCI-H23 cells at 10 uM after 48 hrs; assay type: functional
[24] = system: SNB-19; experiment: Growth inhibition of human SNB19 cells at 10 uM after 48 hrs; assay type: functional
[25] = biological target: T1, Dihydrofolate reductase (Bos taurus, UniProt P00376); experiment: Inhibition of bovine liver DHFR
T1 sequence (P00376 whole entry): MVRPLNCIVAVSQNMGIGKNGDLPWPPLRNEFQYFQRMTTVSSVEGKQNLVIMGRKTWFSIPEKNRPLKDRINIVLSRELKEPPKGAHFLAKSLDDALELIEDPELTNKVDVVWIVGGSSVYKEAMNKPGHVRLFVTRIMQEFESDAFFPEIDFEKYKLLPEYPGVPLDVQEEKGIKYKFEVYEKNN

[26] = system: MOLT-4; experiment: Growth inhibition of human MOLT4 cells at 10 uM after 48 hrs; assay type: functional
[27] = system: SF-295; experiment: Growth inhibition of human SF295 cells at 10 uM after 48 hrs; assay type: functional
[28] = system: OVCAR-5; experiment: Growth inhibition of human OVCAR5 cells at 10 uM after 48 hrs; assay type: functional
[29] = system: OVCAR-3; experiment: Growth inhibition of human OVCAR3 cells at 10 uM after 48 hrs; assay type: functional
[30] = system: Escherichia coli; experiment: Antimicrobial activity against Escherichia coli assessed as inhibition zone at 200 ug/disk after 24 hrs by disc-diffusion method; assay type: functional; conditions: read-out: IZ
[31] = system: LOX IMVI; experiment: Growth inhibition of human LOXIMVI cells at 10 uM after 48 hrs; assay type: functional
[32] = system: SR; experiment: Growth inhibition of human SR cells at 10 uM after 48 hrs; assay type: functional
[33] = system: NCI-H226; experiment: Growth inhibition of human NCI-H226 cells at 10 uM after 48 hrs; assay type: functional
[34] = system: K562; experiment: Growth inhibition of human K562 cells at 10 uM after 48 hrs; assay type: functional
[35] = system: OVCAR-4; experiment: Growth inhibition of human OVCAR4 cells at 10 uM after 48 hrs; assay type: functional
[36] = system: 786-0; experiment: Growth inhibition of human 786-0 cells at 10 uM after 48 hrs; assay type: functional
[37] = system: M14; experiment: Growth inhibition of human M14 cells at 10 uM after 48 hrs; assay type: functional
[38] = system: MDA-MB-468; experiment: Growth inhibition of human MDA-MB-468 cells at 10 uM after 48 hrs; assay type: functional
[39] = system: MDA-MB-435; experiment: Growth inhibition of human MDA-MB-435 cells at 10 uM after 48 hrs; assay type: functional
[40] = system: KM12; experiment: Growth inhibition of human KM12 cells at 10 uM after 48 hrs; assay type: functional
[41] = system: CAKI-1; experiment: Growth inhibition of human CAKI-1 cells at 10 uM after 48 hrs; assay type: functional
[42] = system: SNB-75; experiment: Growth inhibition of human SNB75 cells at 10 uM after 48 hrs; assay type: functional
[43] = system: CCRF-CEM; experiment: Growth inhibition of human CCRF-CEM cells at 10 uM after 48 hrs; assay type: functional
[44] = system: Staphylococcus aureus; experiment: Antimicrobial activity against Staphylococcus aureus assessed as inhibition zone at 200 ug/disk after 24 hrs by disc-diffusion method; assay type: functional; conditions: read-out: IZ
[45] = system: PC-3; experiment: Growth inhibition of human PC3 cells at 10 uM after 48 hrs; assay type: functional
[46] = system: Hs-578T; experiment: Growth inhibition of human Hs 578T cells at 10 uM after 48 hrs; assay type: functional
[47] = system: Bacillus subtilis; experiment: Antimicrobial activity against Bacillus subtilis assessed as inhibition zone at 200 ug/disk after 24 hrs by disc-diffusion method; assay type: functional; conditions: read-out: IZ
[48] = system: UACC-62; experiment: Growth inhibition of human UACC62 cells at 10 uM after 48 hrs; assay type: functional
[49] = system: SK-MEL-5; experiment: Growth inhibition of human SK-MEL-5 cells at 10 uM after 48 hrs; assay type: functional
[50] = system: T47D; experiment: Growth inhibition of human T47D cells at 10 uM after 48 hrs; assay type: functional
[51] = system: OVCAR-8; experiment: Growth inhibition of human OVCAR8 cells at 10 uM after 48 hrs; assay type: functional
[52] = system: RPMI-8226; experiment: Growth inhibition of human RPMI8226 cells at 10 uM after 48 hrs; assay type: functional
[53] = system: TK-10; experiment: Growth inhibition of human TK10 cells at 10 uM after 48 hrs; assay type: functional
[54] = system: SF-539; experiment: Growth inhibition of human SF539 cells at 10 uM after 48 hrs; assay type: functional
[55] = system: SF-268; experiment: Growth inhibition of human SF268 cells at 10 uM after 48 hrs; assay type: functional
[56] = system: NCI-H460; experiment: Growth inhibition of human NCI-H460 cells at 10 uM after 48 hrs; assay type: functional
[57] = system: Pseudomonas aeruginosa; experiment: Antimicrobial activity against Pseudomonas aeruginosa assessed as inhibition zone at 200 ug/disk after 24 hrs by disc-diffusion method; assay type: functional; conditions: read-out: IZ
[58] = system: NCI-H522; experiment: Growth inhibition of human NCI-H522 cells at 10 uM after 48 hrs; assay type: functional

Cc1ccc2nc(Sc3nnc(N)s3)n(Cc3ccccc3)c(=O)c2c1
growth inhibition (GI) [1]: inactive
growth inhibition (GI) [2]: inactive
growth inhibition (GI) [3]: inactive
growth inhibition (GI) [4]: inactive
growth inhibition (GI) [5]: inactive
growth inhibition (GI) [6]: inactive
growth inhibition (GI) [7]: inactive
growth inhibition (GI) [8]: inactive
growth inhibition (GI) [9]: inactive
growth inhibition (GI) [10]: inactive
growth inhibition (GI) [11]: inactive
growth inhibition (GI) [12]: inactive
growth inhibition (GI) [13]: inactive
growth inhibition (GI) [14]: inactive
growth inhibition (GI) [15]: inactive
growth inhibition (GI) [16]: inactive
growth inhibition (GI) [17]: inactive
growth inhibition (GI) [18]: inactive
growth inhibition (GI) [19]: inactive
growth inhibition (GI) [20]: inactive
growth inhibition (GI) [21]: inactive
zone of inhibition at 200 µg/disc [22]: 8 mm
growth inhibition (GI) [23]: inactive
growth inhibition (GI) [24]: inactive
IC50 [25]: 2000 nM
growth inhibition (GI) [26]: inactive
growth inhibition (GI) [27]: inactive
growth inhibition (GI) [28]: inactive
growth inhibition (GI) [29]: inactive
zone of inhibition at 200 µg/disc [30]: 8 mm
growth inhibition (GI) [31]: inactive
growth inhibition (GI) [32]: inactive
growth inhibition (GI) [33]: inactive
growth inhibition (GI) [34]: inactive
growth inhibition (GI) [35]: inactive
growth inhibition (GI) [36]: inactive
growth inhibition (GI) [37]: inactive
growth inhibition (GI) [38]: inactive
growth inhibition (GI) [39]: inactive
growth inhibition (GI) [40]: inactive
growth inhibition (GI) [41]: inactive
growth inhibition (GI) [42]: inactive
growth inhibition (GI) [43]: inactive
zone of inhibition at 200 µg/disc [44]: 8 mm
growth inhibition (GI) [45]: inactive
growth inhibition (GI) [46]: inactive
zone of inhibition at 200 µg/disc [47]: 8 mm
growth inhibition (GI) [48]: inactive
growth inhibition (GI) [49]: inactive
growth inhibition (GI) [50]: inactive
growth inhibition (GI) [51]: inactive
growth inhibition (GI) [52]: inactive
growth inhibition (GI) [53]: inactive
growth inhibition (GI) [54]: inactive
growth inhibition (GI) [55]: inactive
growth inhibition (GI) [56]: inactive
zone of inhibition at 200 µg/disc [57]: 8 mm
growth inhibition (GI) [58]: inactive

Source: ChEMBL document CHEMBL3352542, “Synthesis, biological evaluation and molecular modeling study of 2-(1,3,4-thiadiazolyl-thio and 4-methyl-thiazolyl-thio)-quinazolin-4-ones as a new class of DHFR inhibitors” (Bioorg Med Chem Lett, 2014)
